By pIC50 is commonly meant −log10 of the IC50, conventionally taken in molar units.

This note sets out measurements from US20130116241A1, “NOVEL INHIBITOR COMPOUNDS OF PHOSPHODIESTERASE TYPE 10A” (AbbVie Inc., priority 2011, published 2013).

pIC50: −log10 of the molar value.

The target in this test is human PDE10A (UniProt Q9Y233). The test is described as follows: Measurement of PDE activity (recombinant enzyme, HTRF cAMP kit). Type of test: biochemical. The conditions noted are these: Table 1, substrate 20 nM for PDE10, 60 minutes at 29 C, read-out: IC50. An outline of the steps: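 HTRF detection of cAMP left after hydrolysis, expressed as percent of uninhibited control to derive IC50. Reaction: serially diluted inhibitor mixed with recombinant enzyme, started with 20 nM cAMP, 60 min at 29 °C in Tris-HCl pH 7.5 buffer containing MgCl2 and BSA.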
Sequence of human PDE10A (Q9Y233 290-1055 limits assumed): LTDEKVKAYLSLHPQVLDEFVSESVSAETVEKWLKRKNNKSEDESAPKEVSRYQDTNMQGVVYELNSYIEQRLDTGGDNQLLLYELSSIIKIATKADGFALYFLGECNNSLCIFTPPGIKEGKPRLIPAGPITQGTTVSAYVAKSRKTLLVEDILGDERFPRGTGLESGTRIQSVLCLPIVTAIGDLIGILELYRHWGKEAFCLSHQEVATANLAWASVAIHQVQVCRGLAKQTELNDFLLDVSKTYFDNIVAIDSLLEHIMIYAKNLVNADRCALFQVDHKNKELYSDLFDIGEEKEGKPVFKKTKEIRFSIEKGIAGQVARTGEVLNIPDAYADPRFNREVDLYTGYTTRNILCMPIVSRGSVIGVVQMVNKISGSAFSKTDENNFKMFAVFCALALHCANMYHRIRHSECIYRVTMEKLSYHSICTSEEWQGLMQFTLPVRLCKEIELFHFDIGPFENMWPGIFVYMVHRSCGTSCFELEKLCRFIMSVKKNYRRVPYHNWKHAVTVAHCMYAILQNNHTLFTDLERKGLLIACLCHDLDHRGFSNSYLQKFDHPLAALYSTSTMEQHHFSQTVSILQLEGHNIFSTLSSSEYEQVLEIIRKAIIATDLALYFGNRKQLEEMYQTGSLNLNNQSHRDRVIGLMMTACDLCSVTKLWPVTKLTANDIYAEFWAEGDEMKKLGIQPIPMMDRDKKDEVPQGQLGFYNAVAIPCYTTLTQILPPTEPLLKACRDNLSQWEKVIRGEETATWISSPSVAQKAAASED
(In general: In TR-FRET formats the signal depends on donor and acceptor labels being close together.)
In the case of `O=c1c2c(-c3ccncc3)csc2cnn1CC(F)(F)c1ccc2ccccc2n1` [Example 94, 5-[2,2-Difluoro-2-(quinolin-2-yl)ethyl]-3-(pyridin-4-yl)thieno[2,3-d]pyridazin-4(5H)-one], the pIC50 is above 7.00. To `O=c1c2c(-c3ccncc3)csc2cnn1CCc1ccc2sccc2n1` [Example 95, 3-(Pyridin-4-yl)-5-[2-(thieno[3,2-b]pyridin-5-yl)ethyl]thieno[2,3-d]pyridazin-4(5H)-one] belongs above 7.00; to `O=c1c2c(-c3ccncc3)csc2cnn1CCc1cn2ccccc2n1` [Example 96, 5-[2-(Imidazo[1,2-a]pyridin-2-yl)ethyl]-3-(pyridin-4-yl)thieno[2,3-d]pyridazin-4(5H)-one], above 7.00; to `O=c1c2c(-c3ccncc3)csc2cnn1CCc1cn2ccc(F)cc2n1` [Example 97, 5-[2-(7-Fluoroimidazo[1,2-a]pyridin-2-yl)ethyl]-3-(pyridin-4-yl)thieno[2,3-d]pyridazin-4(5H)-one], above 7.00. The result for `O=c1c2c(-c3ccncc3)cccc2cnn1CCc1ccc2ccccc2n1` [Example 98, 8-(Pyridin-4-yl)-2-[2-(quinolin-2-yl)ethyl]phthalazin-1(2H)-one] reads above 7.00; that for `Cc1ccc(-c2cccc3cnn(CCc4ccc5ccccc5n4)c(=O)c23)cc1` [Example 100, 8-(4-Methylphenyl)-2-[2-(quinolin-2-yl)ethyl]phthalazin-1(2H)-one], 6.30 to 6.70. To `N#Cc1ccc(-c2cccc3cnn(CCc4ccc5ccccc5n4)c(=O)c23)cc1` [Example 103, 4-{4-Oxo-3-[2-(quinolin-2-yl)ethyl]-3,4-dihydrophthalazin-5-yl}benzonitrile] belongs above 7.00.

`COc1ccc(-c2cccc3cnn(CCc4ccc5ccccc5n4)c(=O)c23)cc1` [Example 104, 8-(4-Methoxyphenyl)-2-[2-(quinolin-2-yl)ethyl]phthalazin-1(2H)-one]: the pIC50 is 6.70 to 7.00. To `O=c1c2c(-c3ccc(F)cc3)cccc2cnn1CCc1ccc2ccccc2n1` [Example 105, 8-(4-Fluorophenyl)-2-[2-(quinolin-2-yl)ethyl]phthalazin-1(2H)-one] belongs 6.70 to 7.00. To `N#CCc1ccc(-c2cccc3cnn(CCc4ccc5ccccc5n4)c(=O)c23)cc1` [Example 106, (4-{4-Oxo-3-[2-(quinolin-2-yl)ethyl]-3,4-dihydrophthalazin-5-yl}phenyl)acetonitrile] belongs above 7.00; to `O=c1c2c(-c3ccc(O)cc3)cccc2cnn1CCc1ccc2ccccc2n1` [Example 107, 8-(4-Hydroxyphenyl)-2-[2-(quinolin-2-yl)ethyl]phthalazin-1(2H)-one], above 7.00; to `O=c1c2c(-c3ccccc3Cl)cccc2cnn1CCc1ccc2ccccc2n1` [Example 108, 8-(2-chlorophenyl)-2-[2-(quinolin-2-yl)ethyl]phthalazin-1(2H)-one], 6.30 to 6.70. For the molecule `Cc1ccccc1-c1cccc2cnn(CCc3ccc4ccccc4n3)c(=O)c12` [Example 109, 8-(2-Methylphenyl)-2-[2-(quinolin-2-yl)ethyl]phthalazin-1(2H)-one], the pIC50 was 6.30 to 6.70.

Take `O=c1c2c(-c3ccccc3F)cccc2cnn1CCc1ccc2ccccc2n1` [Example 111, 8-(2-Fluorophenyl)-2-[2-(quinolin-2-yl)ethyl]phthalazin-1(2H)-one]: the pIC50 is above 7.00. The result for `COc1cccc(-c2cccc3cnn(CCc4ccc5ccccc5n4)c(=O)c23)c1` [Example 113, 8-(3-Methoxyphenyl)-2-[2-(quinolin-2-yl)ethyl]phthalazin-1(2H)-one] reads 6.70 to 7.00; that for `N#Cc1cccc(-c2cccc3cnn(CCc4ccc5ccccc5n4)c(=O)c23)c1` [Example 114, 3-{4-Oxo-3-[2-(quinolin-2-yl)ethyl]-3,4-dihydrophthalazin-5-yl}benzonitrile], 6.70 to 7.00; that for `O=c1c2c(-c3cccc(F)c3)cccc2cnn1CCc1ccc2ccccc2n1` [Example 115, 8-(3-Fluorophenyl)-2-[2-(quinolin-2-yl)ethyl]phthalazin-1(2H)-one], above 7.00.
